# Patent publication US12419854B2, “Methods for treating or preventing gout or hyperuricemia” (Arthrosi Therapeutics, Inc., priority 2018, dated 2025)
# Read-outs that look alike come from different tables or passages of the source.
# What was measured:
# [1] = biological target: T1, human URAT1 uptake transporter (Homo sapiens, UniProt Q96S37); assay: Inhibition of URAT1-mediated uric acid uptake in MDCKII cells stably expressing human URAT1; assay type: cell-based
# T1 construct: expressed in transfected cells
# T1 sequence (Q96S37 1-553): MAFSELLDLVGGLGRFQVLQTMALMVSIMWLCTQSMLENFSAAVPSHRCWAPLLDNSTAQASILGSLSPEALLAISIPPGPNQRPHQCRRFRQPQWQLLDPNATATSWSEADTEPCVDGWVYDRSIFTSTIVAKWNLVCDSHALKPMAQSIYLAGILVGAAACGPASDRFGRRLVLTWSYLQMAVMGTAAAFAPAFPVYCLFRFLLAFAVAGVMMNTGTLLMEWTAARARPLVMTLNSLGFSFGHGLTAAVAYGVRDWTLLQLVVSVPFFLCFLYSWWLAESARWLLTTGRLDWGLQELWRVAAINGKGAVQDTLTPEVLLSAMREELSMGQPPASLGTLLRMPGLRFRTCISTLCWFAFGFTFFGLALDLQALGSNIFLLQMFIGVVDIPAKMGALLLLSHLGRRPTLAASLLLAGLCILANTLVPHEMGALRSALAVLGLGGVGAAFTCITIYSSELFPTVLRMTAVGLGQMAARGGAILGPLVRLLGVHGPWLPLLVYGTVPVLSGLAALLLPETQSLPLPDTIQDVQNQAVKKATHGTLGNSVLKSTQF
# Protocol: Uptake experiments were performed using MDCKII cells stably expressing the human URAT1 uptake transporter. Cells were cultured at 37+1° C. in an atmosphere of 95:5 air:CO2 and were plated onto standard 96-well tissue culture plates at the cell number described in Table 1.
# Radiolabeled probe substrate transport was determined by measuring an aliquot (35 μL) from each well for liquid scintillation counting.
# Sprague-Dawley Rats = assay: 4-week oral toxicity study in Sprague-Dawley rats; assay type: in vivo; details: rat
# Text: (§1) On Day 29, surviving TS animals (all animals in study) were euthanized and subjected to a full gross necropsy, which included a macroscopic examination of the external surface of the body, all orifices, cranial cavity, external surface of the brain, the thoracic, abdominal and pelvic cavities and their viscera, cervical areas, carcass and genitalia. Organs were weighed as soon as possible from all main study animals at the scheduled necropsies. Tissues from Groups 1 and 5 animals at the terminal sacrifice, from animals found dead or moribund-sacrificed, and gross lesions from all animals, were embedded in paraffin, sectioned, stained with hematoxylin and eosin and examined microscopically by a board certified veterinary pathologist.
# serum uric acid (sUA) [2] = assay: Phase 1 multiple ascending dose study, pharmacodynamics (serum uric acid); assay type: in vivo, human; details: 25, 50 or 75 mg once daily oral capsules, fasted, 10 days; in words
# Text: An additional 6 subjects received placebo.
# Steady-state sUA lowering effect was achieved after approximately 5 days.
# serum uric acid (sUA) [3] = assay: Phase 1 single dose study, pharmacodynamics (serum uric acid); assay type: in vivo, human; details: for Percent change in serum uric acid, mean, time-matched (Day-1) baseline: 0 h
# Protocol: (§2) The dose groups included Cohort 1 (15 mg or placebo, fasted, oral suspension), Cohort 2 (50 mg or placebo, fasted, suspension), Cohort 3 (100 mg or placebo, fasted, oral suspension), Cohort 4 (150 mg or placebo, fasted, oral suspension), Cohort 6 (50 mg or placebo, fed, oral suspension), and Cohort 7 (50 mg or placebo, fasted, oral capsule). […] An additional 8 subjects received placebo.
# Decrease in sUA appeared to reach a plateau at 100 mg or lower.
# [4] = Phase 1 single dose study, plasma pharmacokinetics; assay type: in vivo, human; details: for power model intercept (a) of exposure versus dose: male, human, plasma, oral
# Protocol: as §2
# The results are consistent with observation in animal testing and higher exposure of S-enantiomer was attributed to the conversion of the R-enantiomer in vivo.
# Cynomolgus Monkeys = assay: 4-week oral toxicity study in cynomolgus monkeys; assay type: in vivo
# Text: as §1, with “from” for “from Groups 1 and 5”
# [5] = In vitro metabolism in human liver microsomes (HPLC-MS profiling); assay type: in vitro ADME; details: for % MS response, Parent: human liver microsomes 0.5 mg/mL, NADPH, 60 minutes, 37° C.
# Protocol: After pre-warming the mixture at 37° C. for 5 minutes, the reaction was initiated by the addition of 1 mM of NADPH and incubated for 60 minutes at 37° C. in a shaking water bath. The reaction was terminated by the addition of 0.5 mL ice-cold acetonitrile. Time 0 incubation was also performed by adding acetonitrile before the addition of microsomes to the incubation mixture as a reference sample for each species. Following vortex and centrifugation at 15,000 g for 3 minutes at room temperature, resulting supernatant was concentrated under nitrogen flow at 33° C., until approximately 0.5 mL of sample remained. The extract was then transferred to a 1.5-mL centrifuge vial for centrifugation at 15,000 g for 3 minutes. Finally, aliquots of the supernatant were transferred to HPLC vials for HPLC-MS analyses.
# MS Analysis: Mass spectral analyses were performed on an Agilent single quadruple mass spectrometer equipped with an Agilent 1100 HPLC system. The mass spectrometer was fitted with an electrospray ionization (ESI) source and operated in a negative scan mode between 400 and 500 amu:
# Metabolic profiling of benzbromarone was conducted using a similar method as described above.
smiles,measurement,setting,value
"[2H]c1c([2H])c([2H])c2c(C(=O)c3cc(Br)c(O)c(Br)c3)c(C(C)O)oc2c1[2H] (racemic) [Compound 1, (3,5-dibromo-4-hydroxyphenyl)(2-(1-hydroxyethyl)benzofuran-3-yl-4,5,6,7-d4)methanone]",inhibition at 10 µM,"[1]; MDCK-II, at 10 μM, read-out: inhibition of URAT1 mediated uric acid accumulation",100%
same,in vitro URAT1 potency versus benzbromarone,[1]; comparison in words,better in vitro URAT1 potency than benzbromarone
same,effect on food consumption of body weight,"Sprague-Dawley Rats; 2-50 mg/kg/day oral gavage, 28 days",no effect
same,kidney weight,"Sprague-Dawley Rats; female, 50 mg/kg/day, 28 days",kidney weight increase
same,liver weight,"Sprague-Dawley Rats; female, ≥15 mg/kg/day, 28 days",Liver weight increase
same,human equivalent of NOAEL,Sprague-Dawley Rats; in vivo,500 mg
same,liver weight,"Sprague-Dawley Rats; male, 50 mg/kg/day, 28 days",Liver weight increase
same,mean sUA levels versus placebo group,serum uric acid (sUA) [2],dose-dependent decreases
same,sUA reduction with versus without food,"serum uric acid (sUA) [3]; 50 mg single dose, throughout 120 hours post-dose, in words",no difference
same,"Percent change in serum uric acid, mean, time-matched (Day-1) baseline","serum uric acid (sUA) [3]; single oral dose 15 mg, fasted",−3.4%
same,"Percent change in serum uric acid, mean, time-matched (Day-1) baseline","serum uric acid (sUA) [3]; single oral dose 50 mg, fasted (suspension)",−8.9%
same,"Serum uric acid, mean","serum uric acid (sUA) [3]; single oral dose 50 mg, fasted (suspension), −12 h (pre-dose)",5.9 mg/dL
same,"Serum uric acid, mean","serum uric acid (sUA) [3]; single oral dose 50 mg, fasted (suspension), −24 h (pre-dose)",6.7 mg/dL
same,"Serum uric acid, mean","serum uric acid (sUA) [3]; single oral dose 50 mg, fasted, Capsule, −12 h (pre-dose)",5.5 mg/dL
same,"Serum uric acid, mean","serum uric acid (sUA) [3]; single oral dose 50 mg, fasted, Capsule, −18 h (pre-dose)",5.5 mg/dL
same,"Percent change in serum uric acid, mean, time-matched (Day-1) baseline","serum uric acid (sUA) [3]; single oral dose 50 mg, fed",−1.0%
same,"Serum uric acid, mean","serum uric acid (sUA) [3]; single oral dose 50 mg, fed, −12 h (pre-dose)",6.2 mg/dL
same,"Serum uric acid, mean","serum uric acid (sUA) [3]; single oral dose 50 mg, fed, −24 h (pre-dose)",6.5 mg/dL
same,"Percent change in serum uric acid, mean, time-matched (Day-1) baseline","serum uric acid (sUA) [3]; single oral dose 100 mg, fasted",−6.6%
same,"Serum uric acid, mean","serum uric acid (sUA) [3]; single oral dose 150 mg, fasted, −18 h (pre-dose)",5.7 mg/dL
same,mean sUA levels versus placebo group,"serum uric acid (sUA) [3]; single oral dose 15, 50, 100, and 150 mg fasted, at 50 mg or higher, in words",dose-dependent decreases
same,food effect on Cmax in the fed state,"[4]; 50 mg, fed versus fasted",~33%
same,dose proportionality of AUC (AUCinf),"[4]; 15 to 150 mg, fasted, in words",dose proportional increases
same,dose proportionality of Cmax,"[4]; 15 to 150 mg, fasted, in words",slightly less than dose proportionality increase
same,power model intercept (a) of exposure versus dose,"[4]; 15 to 150 mg, fasted, AUCinf (μg · h/mL) = a × dose^b, read-out: power model intercept, AUCinf",944 ng·h/mL
same,power model intercept (a) of exposure versus dose,"[4]; 15 to 150 mg, fasted, Cmax (μg/mL) = a × dose^b, read-out: power model intercept, Cmax",96.6 ng/mL
same,AUCinf (Total),"[4]; single oral dose 50 mg, fed, suspension (C6)",51200 ng·h/mL
same,"volume of distribution, range over dose groups",[4]; single oral dose 15-150 mg,14 to 18 L
same,human equivalent of NOAEL,"Cynomolgus Monkeys; cynomolgus monkey, in vivo",600 mg
same,effect on food consumption of body weight,"Cynomolgus Monkeys; monkey, 10-150 mg/kg/day, 28 days",no effect
same,liver weight,"Cynomolgus Monkeys; monkey, male, 150 mg/kg/day, no statistical difference",trended higher
same,"% MS response, Parent",[5],82.5%
same,"formation of 6-OH benzbromarone and 5,6-di-OH benzbromarone metabolites",[5]; in words,not formed
"CCc1oc2ccccc2c1C(=O)c1cc(Br)c(O)c(Br)c1 [Benzbromarone, reference compound]","% MS response, Parent",[5],13.1%
